Positions of bridges follow the written chain, without caps; N, C: chain ends. Non-standard residues stand in square brackets, D forms with d. Residues, ends and D or L forms follow the SMILES beside them. *: point of attachment. X1 = CC[C@H](C)CCCCC(=O)*; Dab = NCC[C@H](N)C(=O)O
Experiment: Steady-state plasma concentrations of polymyxin B (total of B1, B2, B1-Ile) by LC-MS/MS
Assay type: in vivo
Conditions: human, iv, read-out: OUT (observed polymyxin B plasma concentration)
Source text: We gather data from critically ill patients (≥18 years old) who were given intravenous drip polymyxin B treatment with blood concentration monitoring at the hospital from November 2021 to September 2022. The attending physician decided to administer polymyxin B. At the same time, patients who received continuous renal replacement therapy (CRRT) (n = 10) or extracorporeal membrane oxygenation (ECMO) (n = 2) at the time of blood collection were excluded. Patients’ information, including gender, age, WT, serum creatinine (Scr), CCR, ALB, APACHE-II, infection diagnosis, and pathogenic bacteria, were obtained from the electronic system for medical records. CCR was generated by adopting the Cockcroft—Gault equation with WT and age ([Cucci et al., 2022]). The Ethical Committees of the Second Affiliated Hospital of the South China University of Technology authorized the study (K-2022-020-01).
Patients were treated with polymyxin B, and plasma samples were collected ≥ 48 h after the treatment. Each patient contributed clinical samples, of which 37.5% (n = 24) were sampled with troughs (within 1 h before administration), 35.9% (n = 23) were sampled with peaks (within 1 h after the end of the infusion), and 26.6% (n = 17) were sampled at 6-8 h after the infusion. The dosing regimens of polymyxin B were a loading dose of 100 mg–150 mg and a maintenance dose of 50 mg–75 mg q12h, and the infusion duration was about 1–2 h. In preparation for analysis, samples were centrifuged for 10 min at 3000 r min^-1 after collection, and the upper plasma after centrifugation was stored at −20°C.
According to previous studies, total polymyxin B1, polymyxin B2, and polymyxin B1-Ile concentrations in human blood plasma were quantified using LC-MS/MS ([Meng et al., 2016]; [Hee et al., 2017]). The standard used in our experiments was the USP standard with the batch number of R104F0. The chromatographic column was the Kinetex C18 (3 μm × 2.1 mm×100 mm. Phenomenex). A: B mobile phase was 0.1% formic acid to acetonitrile. With changes in the linear velocity ratio, gradient elution was as follows: 15% −15% B, 0–2.0 min; 15%–10% B, 2.01–4.0 min; 10%–30% B, 4.01–5.0 min; 15% B, 5.01 min; and 15%–15% B, 5.02–10 min. The flow rate was constrained to 0.8 mL min^-1, and the column temperature was set to 40°C. The parent/daughter ion mass ratios used in the mass spectrometry were m/z 602.6/241.2 (polymyxin B1 and B1-Ile) and m/z 595.6/202.1 (polymyxin B2). Plasma samples (100 μL) were collected from centrifuged blood samples, mixed with 500 μL precipitant (acetonitrile with 6.67% formic acid) and vortexed well for 1 min. The lower limit of quantification (LLOQ) of the bioanalytical method used for quantifying polymyxin B1, B2, and B1-Ile concentrations was 0.19, 0.02 and 0.02 mg L^-1, respectively. The linear relationships of polymyxin B1, B2, and B1-Ile concentrations in the range of 0.19–24.13 mg L^-1, 0.02–2.7 mg L^-1 and 0.02–2.38 mg L^-1 were considered good (R^2 = 0.99677, R^2 = 0.99656, R^2 = 0.99484) and the accuracy was within 95.3%–105.3%, 92.2%–104.8%, and 95.8%–105.4%. […] Finally, 200 μL of the supernatant from the centrifugation of the combination at 14,000 r min^-1 for 10 min was employed to measure the amounts of polymyxin B.

Q: With `CC[C@H](C)CCCCC(=O)N[C@@H](CCN)C(=O)N[C@H](C(=O)N[C@@H](CCN)C(=O)N[C@H]1CCNC(=O)[C@H]([C@@H](C)O)NC(=O)[C@H](CCN)NC(=O)[C@H](CCN)NC(=O)[C@H](CC(C)C)NC(=O)[C@@H](Cc2ccccc2)NC(=O)[C@H](CCN)NC1=O)[C@@H](C)O` [polymyxin B] (X1-[Dab]T[Dab][Dab][Dab][dF]L[Dab][Dab]T; lactam 4-C) as the molecule, how does the level at 47.67 h (50 mg, patient ID 2, TIME 47.67, DOSE 50 every 12 from 0 to 36, DUR 1, WT 56, CCR 34.05, ALB 30.1, APACHE 20, single sample) read?
A: 3020 ng/mL

Q: What about the level at 50 h (50 mg, patient ID 6, TIME 50, DOSE 50 every 12 from 0 to 48, DUR 1, WT 60, CCR 81.34, ALB 36.6, APACHE 18, single sample) of the same molecule?
A: 4480 ng/mL

Q: And the level at 300 h (50 mg, patient ID 7, TIME 300, DOSE 50 from 0, ADDL 25, II 12, DUR 1, WT 52, CCR 121.16, ALB 32.1, APACHE 21, single sample)?
A: 2640 ng/mL

Q: What about the level at 301 h (50 mg, patient ID 7, TIME 301, DOSE 50 from 0, ADDL 25, II 12, DUR 1, WT 52, CCR 121.16, ALB 32.1, APACHE 21, single sample) of the same molecule?
A: 7720 ng/mL

Q: And the level at 306.5 h (50 mg, patient ID 7, TIME 306.5, DOSE 50 from 0, ADDL 25, II 12, DUR 1, WT 52, CCR 121.16, ALB 32.1, APACHE 21, single sample)?
A: 4180 ng/mL

Q: What about the level at 133.6 h (50 mg, patient ID 9, TIME 133.6, DOSE 50 from 0, ADDL 11, II 12, DUR 1, WT 55, CCR 34.79, ALB 30.8, APACHE 15, single sample) of the same molecule?
A: 3740 ng/mL

Q: And the level at 139 h (50 mg, patient ID 9, TIME 139, DOSE 50 from 0, ADDL 11, II 12, DUR 1, WT 55, CCR 34.79, ALB 30.8, APACHE 15, single sample)?
A: 3180 ng/mL

Q: And the level at 145 h (50 mg, patient ID 9, TIME 145, DOSE 50 from 0, ADDL 11, II 12, DUR 1, WT 55, CCR 34.79, ALB 30.8, APACHE 15, single sample)?
A: 2890 ng/mL

Q: And the level at 195 h (50 mg, patient ID 15, TIME 195, DOSE 50 every 12 from 133 (DUR 1, ADDL 11), WT 50, CCR 35.85, ALB 29.5, APACHE 39, single measurement)?
A: 4600 ng/mL

Q: And the level at 207 h (50 mg, patient ID 15, TIME 207, DOSE 50 every 12 from 133 (DUR 1, ADDL 11), WT 50, CCR 35.85, ALB 29.5, APACHE 39, single measurement)?
A: 2250 ng/mL

Q: What about the level at 266.25 h (50 mg, patient ID 15, TIME 266.25, DOSE 50 every 12 from 133 (DUR 1, ADDL 11), WT 50, CCR 35.85, ALB 29.5, APACHE 39, single measurement) of the same molecule?
A: 4870 ng/mL

Q: And the level at 277 h (50 mg, patient ID 15, TIME 277, DOSE 50 every 12 from 133 (DUR 1, ADDL 11), WT 50, CCR 35.85, ALB 29.5, APACHE 39, single measurement)?
A: 2420 ng/mL

Q: And the level at 169.25 h (50 mg, patient ID 16, TIME 169.25, DOSE 50 every 12 from 0 (DUR 2, ADDL 14), WT 65, CCR 75.18, ALB 32, APACHE 31, single measurement)?
A: 6980 ng/mL

Q: And the level at 174 h (50 mg, patient ID 16, TIME 174, DOSE 50 every 12 from 0 (DUR 2, ADDL 14), WT 65, CCR 75.18, ALB 32, APACHE 31, single measurement)?
A: 2970 ng/mL

Q: What about the level at 179 h (50 mg, patient ID 16, TIME 179, DOSE 50 every 12 from 0 (DUR 2, ADDL 14), WT 65, CCR 75.18, ALB 32, APACHE 31, single measurement) of the same molecule?
A: 2460 ng/mL

Q: What about the level at 120 h (50 mg, patient ID 17, TIME 120, DOSE 50 every 12 from 0 (DUR 1, ADDL 10), WT 75, CCR 55.08, ALB 38.8, APACHE 22, single measurement) of the same molecule?
A: 4530 ng/mL

Q: What about the level at 121.48 h (50 mg, patient ID 17, TIME 121.48, DOSE 50 every 12 from 0 (DUR 1, ADDL 10), WT 75, CCR 55.08, ALB 38.8, APACHE 22, single measurement) of the same molecule?
A: 2350 ng/mL

Q: And the level at 62.5 h (50 mg, patient ID 18, TIME 62.5, DOSE 50 at 0, 12, 24, 36, 48, 60, DUR 2, WT 80, CCR 169.94, ALB 41.5, APACHE 29, single measurement)?
A: 4860 ng/mL

Q: What about the level at 66 h (50 mg, patient ID 18, TIME 66, DOSE 50 at 0, 12, 24, 36, 48, 60, DUR 2, WT 80, CCR 169.94, ALB 41.5, APACHE 29, single measurement) of the same molecule?
A: 1800 ng/mL

Q: What about the level at 72 h (50 mg, patient ID 18, TIME 72, DOSE 50 at 0, 12, 24, 36, 48, 60, DUR 2, WT 80, CCR 169.94, ALB 41.5, APACHE 29, single measurement) of the same molecule?
A: 839 ng/mL

Q: What about the level at 97 h (75 mg, patient ID 12, TIME 97, DOSE 75 from 0, ADDL 9, II 12, DUR 1, WT 60, CCR 104.47, ALB 33.9, APACHE 24, single sample) of the same molecule?
A: 9560 ng/mL

Q: And the level at 102 h (75 mg, patient ID 12, TIME 102, DOSE 75 from 0, ADDL 9, II 12, DUR 1, WT 60, CCR 104.47, ALB 33.9, APACHE 24, single sample)?
A: 4840 ng/mL

Q: And the level at 108 h (75 mg, patient ID 12, TIME 108, DOSE 75 from 0, ADDL 9, II 12, DUR 1, WT 60, CCR 104.47, ALB 33.9, APACHE 24, single sample)?
A: 2990 ng/mL

Q: And the level at 74.33 h (75 mg, patient ID 15, TIME 74.33, after DOSE 75 at 73 (DUR 1, ADDL 4, II 12), WT 50, CCR 35.85, ALB 29.5, APACHE 39, single measurement)?
A: 8900 ng/mL

Q: What about the level at 217 h (75 mg, patient ID 22, TIME 217, DOSE 75 every 12 from 0 (ADDL 18), DUR 1, WT 60, CCR 155.65, ALB 24.3, APACHE 30, single measurement) of the same molecule?
A: 3620 ng/mL

Q: What about the level at 222 h (75 mg, patient ID 22, TIME 222, DOSE 75 every 12 from 0 (ADDL 18), DUR 1, WT 60, CCR 155.65, ALB 24.3, APACHE 30, single measurement) of the same molecule?
A: 2060 ng/mL

Q: And the level at 228 h (75 mg, patient ID 22, TIME 228, DOSE 75 every 12 from 0 (ADDL 18), DUR 1, WT 60, CCR 155.65, ALB 24.3, APACHE 30, single measurement)?
A: 1060 ng/mL

Q: And the level at 60.5 h (patient ID 1, TIME 60.5, DOSE 100 at 0 then 50 every 12 to 48, DUR 1, WT 58, CCR 69.29, ALB 23.1, APACHE 30, single sample)?
A: 2270 ng/mL
